ChEMBL document CHEMBL6182937, “Design, Synthesis, and Anti-ischemic Stroke Activity Evaluation of Novel GSNOR Inhibitors” (J Med Chem, 2025)
The source made the active and inactive calls. The rule behind the calls is not given here.

Experiments:
Homo sapiens [1] = organism: Homo sapiens; assay: Inhibition of GSNOR (unknown origin) at 1 uM in presence of NADH incubated for 10 mins by microplate reader analysis relative to control
[2] = Inhibition of GSNOR (unknown origin) in presence of NADH incubated for 10 mins by microplate reader analysis; parameters: species or system Homo sapiens
Homo sapiens [3] = organism: Homo sapiens; assay: Inhibition of GSNOR (unknown origin) at 10 uM relative to control
[4] = Inhibition of GSNOR (unknown origin); parameters: species or system Homo sapiens
[5] = Cmax in Sprague-Dawley rat at 10 mg/kg, iv by LC-MS/MS analysis; assay type: ADME, organism-based; conditions: in vivo
CYP1A2 = biological target: T1, CYP1A2 (Homo sapiens, UniProt P05177); assay: Inhibition of human CYP1A2 in human liver microsome at 10 uM relative to control; assay type: ADME; conditions: human liver microsomes
T1 sequence (P05177 whole entry): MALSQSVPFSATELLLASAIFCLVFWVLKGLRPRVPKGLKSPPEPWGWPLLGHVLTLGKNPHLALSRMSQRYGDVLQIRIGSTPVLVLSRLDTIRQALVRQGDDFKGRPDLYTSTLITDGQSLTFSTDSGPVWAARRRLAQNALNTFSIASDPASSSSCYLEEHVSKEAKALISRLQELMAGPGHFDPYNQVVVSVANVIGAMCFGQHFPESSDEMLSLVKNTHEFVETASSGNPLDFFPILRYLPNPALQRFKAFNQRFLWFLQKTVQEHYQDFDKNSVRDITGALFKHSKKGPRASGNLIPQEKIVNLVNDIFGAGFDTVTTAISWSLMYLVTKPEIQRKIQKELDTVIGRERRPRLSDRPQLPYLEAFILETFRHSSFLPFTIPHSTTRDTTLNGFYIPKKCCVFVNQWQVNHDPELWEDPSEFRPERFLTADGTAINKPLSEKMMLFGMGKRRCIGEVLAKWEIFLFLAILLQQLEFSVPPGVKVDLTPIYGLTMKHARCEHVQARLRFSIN

[6] = Oral bioavailability in male C57BL/6 mouse at 10 mg/kg by LC-MS/MS analysis; assay type: ADME, organism-based; conditions: in vivo
[7] = Clearance in Sprague-Dawley rat at 10 mg/kg, iv by LC-MS/MS analysis; assay type: ADME, organism-based; conditions: in vivo
SH-SY5Y [8] = assay: Cytotoxicity against human SH-SY5Y cells up to 40 uM incubated for 24 hrs by CCK-8 assay; assay type: functional, cell-based
CYP2D6 = CYP2D6 (Homo sapiens, UniProt P10635); assay: Inhibition of human CYP2D6 in human liver microsome at 10 uM relative to control; assay type: ADME; conditions: human liver microsomes
SH-SY5Y [9] = assay: Neuroprotective activity against OGD/R-induced human […] cell injury model assessed as increase in cell viability at 10 uM measured for 24 hrs by CCK-8 assay; assay type: functional, cell-based
[10] = AUC (0 to t) in Sprague-Dawley rat at 10 mg/kg, iv by LC-MS/MS analysis; assay type: ADME, organism-based; conditions: in vivo
CYP2C9 = CYP2C9 (Homo sapiens, UniProt P11712); assay: Inhibition of human CYP2C9 in human liver microsome at 10 uM relative to control; assay type: ADME; conditions: human liver microsomes
[11] = Tmax in Sprague-Dawley rat at 10 mg/kg, iv by LC-MS/MS analysis; assay type: ADME, organism-based; conditions: in vivo
[12] = MRT (0 to t) in Sprague-Dawley rat at 10 mg/kg, iv by LC-MS/MS analysis; assay type: ADME, organism-based; conditions: in vivo
CYP2C19 = CYP2C19 (Homo sapiens, UniProt P33261); assay: Inhibition of human CYP2C19 in human liver microsome at 10 uM relative to control; assay type: ADME; conditions: human liver microsomes
[13] = Half life in Sprague-Dawley rat at 10 mg/kg, iv by LC-MS/MS analysis; assay type: ADME, organism-based; conditions: in vivo
CYP3A4 = CYP3A4 (Homo sapiens, UniProt P08684); assay: Inhibition of human CYP3A4 in human liver microsome at 10 uM relative to control; assay type: ADME; conditions: human liver microsomes
Sequence of CYP3A4 (P08684 whole entry): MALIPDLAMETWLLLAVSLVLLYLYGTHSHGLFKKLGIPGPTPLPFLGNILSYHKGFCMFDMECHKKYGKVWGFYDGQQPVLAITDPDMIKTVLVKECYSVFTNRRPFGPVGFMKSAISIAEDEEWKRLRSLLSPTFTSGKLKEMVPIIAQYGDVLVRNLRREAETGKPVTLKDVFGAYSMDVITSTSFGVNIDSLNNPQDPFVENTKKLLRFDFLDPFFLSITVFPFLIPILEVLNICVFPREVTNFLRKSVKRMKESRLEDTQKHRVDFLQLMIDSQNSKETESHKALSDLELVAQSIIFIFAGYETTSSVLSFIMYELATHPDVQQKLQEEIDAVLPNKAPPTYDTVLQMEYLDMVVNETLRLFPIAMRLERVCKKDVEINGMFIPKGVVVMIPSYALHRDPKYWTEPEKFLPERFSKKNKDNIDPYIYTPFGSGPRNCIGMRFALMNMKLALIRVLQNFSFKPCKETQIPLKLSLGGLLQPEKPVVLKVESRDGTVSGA

Sequence of CYP2C19 (P33261 whole entry): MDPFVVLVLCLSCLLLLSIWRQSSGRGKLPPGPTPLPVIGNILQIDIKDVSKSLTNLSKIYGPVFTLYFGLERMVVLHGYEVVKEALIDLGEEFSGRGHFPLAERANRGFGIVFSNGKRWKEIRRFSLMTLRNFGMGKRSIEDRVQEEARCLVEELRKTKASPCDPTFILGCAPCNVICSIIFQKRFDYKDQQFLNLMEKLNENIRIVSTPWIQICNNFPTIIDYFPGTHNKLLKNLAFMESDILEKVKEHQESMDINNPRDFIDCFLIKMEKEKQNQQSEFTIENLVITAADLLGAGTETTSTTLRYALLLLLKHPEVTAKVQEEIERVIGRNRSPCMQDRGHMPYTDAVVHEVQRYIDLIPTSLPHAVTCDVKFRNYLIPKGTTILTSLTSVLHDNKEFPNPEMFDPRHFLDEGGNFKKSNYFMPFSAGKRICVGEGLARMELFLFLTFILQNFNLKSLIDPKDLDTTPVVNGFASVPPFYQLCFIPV
Sequence of CYP2C9 (P11712 whole entry): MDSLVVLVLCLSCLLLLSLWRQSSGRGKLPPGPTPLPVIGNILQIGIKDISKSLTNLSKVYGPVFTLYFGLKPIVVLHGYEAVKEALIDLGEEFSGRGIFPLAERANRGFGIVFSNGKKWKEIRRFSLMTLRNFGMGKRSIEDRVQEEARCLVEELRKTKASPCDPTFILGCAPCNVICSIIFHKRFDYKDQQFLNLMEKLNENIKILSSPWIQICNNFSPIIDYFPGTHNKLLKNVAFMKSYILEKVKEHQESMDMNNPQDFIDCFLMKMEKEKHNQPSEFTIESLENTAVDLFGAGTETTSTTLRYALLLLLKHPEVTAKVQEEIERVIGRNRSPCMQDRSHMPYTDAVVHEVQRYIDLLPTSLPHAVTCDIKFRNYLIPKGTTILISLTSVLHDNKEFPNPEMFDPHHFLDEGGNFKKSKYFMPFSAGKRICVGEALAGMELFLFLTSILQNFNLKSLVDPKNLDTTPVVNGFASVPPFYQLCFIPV
Sequence of CYP2D6 (P10635 whole entry): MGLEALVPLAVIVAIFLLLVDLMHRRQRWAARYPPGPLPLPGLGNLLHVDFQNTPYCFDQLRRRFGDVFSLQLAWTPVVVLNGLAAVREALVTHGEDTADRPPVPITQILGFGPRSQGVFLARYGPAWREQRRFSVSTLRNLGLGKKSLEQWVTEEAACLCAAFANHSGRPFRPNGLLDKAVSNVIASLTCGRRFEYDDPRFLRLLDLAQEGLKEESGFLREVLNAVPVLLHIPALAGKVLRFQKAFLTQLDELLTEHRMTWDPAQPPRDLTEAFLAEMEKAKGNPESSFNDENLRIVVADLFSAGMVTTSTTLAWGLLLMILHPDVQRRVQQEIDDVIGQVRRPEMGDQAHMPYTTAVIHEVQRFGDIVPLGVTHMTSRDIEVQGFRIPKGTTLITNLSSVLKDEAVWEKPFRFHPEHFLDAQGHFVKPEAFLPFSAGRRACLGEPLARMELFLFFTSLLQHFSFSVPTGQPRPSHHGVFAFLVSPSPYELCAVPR

## Cc1cc(C(N)=O)ccc1-n1c(-c2ccc(-c3ccncc3)cc2)cc2ccc(C(=O)O)cc21
Homo sapiens [1]
  inhibition: 12.5%

## O=C(O)c1ccc2cc(-c3ccc(-n4ccnc4)cc3)n(Cc3ccc(Br)cc3)c2c1
Homo sapiens [1]
  inhibition: 81.6%
[2]
  IC50: 84.4 nM

## O=C(O)c1ccc2cc(-c3ccc(-n4ccnc4)cc3)n(Cc3ccc(SC(F)(F)F)cc3)c2c1
Homo sapiens [1]
  inhibition: 89.7%
[2]
  IC50: 71.1 nM

## Cc1cc(C(N)=O)ccc1-n1c(-c2ccc(-c3cn(C)nc3C(F)(F)F)cc2)cc2ccc(C(=O)O)cc21
Homo sapiens [1]
  inhibition: 0.93%

## Cc1cc(-n2c(-c3ccc(-n4ccnc4)cc3)cc3ccc(C(=O)O)cc32)ccc1C(N)=O
Homo sapiens [1]
  inhibition: 72.2%

## O=C(O)c1ccc2cc(-c3ccccc3)n(Cc3ccc(F)cc3)c2c1
Homo sapiens [3]
  inhibition: 32.4%

## O=C(O)c1ccc2cc(-c3ccc(-n4ccnc4)cc3)n(Cc3ccc(F)cc3)c2c1
[4]
  IC50: 649 nM

## NC(=O)c1ccc(-n2c(-c3ccc(-n4ccnc4)cc3)cc3ccc(C(=O)O)cc32)cc1Br
Homo sapiens [1]
  inhibition: 76.6%

## N#Cc1ccc(Cn2c(-c3ccc(-n4ccnc4)cc3)cc3ccc(C(=O)O)cc32)cc1
Homo sapiens [1]
  inhibition: 35.1%
[2]
  IC50: 54.6 nM

## Cc1cc(C(N)=O)ccc1-n1c(-c2ccc(-c3cccnc3)cc2)cc2ccc(C(=O)O)cc21
Homo sapiens [1]
  inhibition: 22.2%

## NC(=O)c1ccc(Cn2c(-c3ccc(-n4ccnc4)cc3)cc3ccc(C(=O)O)cc32)cc1
Homo sapiens [1]
  inhibition: 22.4%
[2]
  IC50: 42.2 nM

## NC(=O)c1cccc(Cn2c(-c3ccc(-n4ccnc4)cc3)cc3ccc(C(=O)O)cc32)c1
Homo sapiens [1]
  inhibition: 3.84%

## Cc1cc(C(N)=O)ccc1-n1c(-c2ccc(NS(N)(=O)=O)cc2)cc2ccc(C(=O)O)cc21
Homo sapiens [1]
  inhibition: 14.8%

## CCOc1cc(-n2c(-c3ccc(-n4ccnc4)cc3)cc3ccc(C(=O)O)cc32)ccc1C(N)=O
[5]
  Cmax: 2930 ng/mL
CYP1A2
  inhibition at 10 µM: 16.6%
[6]
  bioavailability: 6.64%
[7]
  clearance: 48.5 mL/min/kg
SH-SY5Y [8]
  Activity: Active
CYP2D6
  inhibition at 10 µM: 59.2%
Homo sapiens [1]
  inhibition: 95.1%
SH-SY5Y [9]
  Activity: Active
[10]
  AUC(0-t): 3510 ng·h/mL
CYP2C9
  inhibition at 10 µM: 75%
[11]
  Tmax: 19.8 min
[12]
  MRT last: 63 min
CYP2C19
  inhibition at 10 µM: 70.1%
[2]
  IC50: 44.1 nM
[13]
  half-life: 51 min
CYP3A4
  inhibition at 10 µM: 81.5%

## N#Cc1ccc(Cn2c(-c3ccc(-n4ccnc4)cc3)cc3ccc(C(=O)O)cc32)cc1F
Homo sapiens [1]
  inhibition: 88.9%

## Cc1cc(C(N)=O)ccc1-n1c(-c2ccc(-c3cn(C)nc3C)cc2)cc2ccc(C(=O)O)cc21
Homo sapiens [1]
  inhibition: 2.44%

## O=C(O)c1ccc2cc(-c3ccc(-n4ccnc4)cc3)n(Cc3ccc(N4CCCC4=O)cc3)c2c1
Homo sapiens [1]
  inhibition: 85.5%
